Experimental data published in patent publication US20150218534A1, “MODIFIED DNA POLYMERASE” (TOYOBO CO., LTD., priority 2012, published 2015).

Tests used:
482 bp of human β-globin = assay: PCR amplification of 482 bp of human β-globin with dUTP in place of dTTP; type: biochemical; parameters: key to Results of PCR in the presence of dUTP 481 bp: A: Amplified; B: Amplified (faint band); C: Not amplified; conditions: for PCR amplification of 482 bp with dUTP: 100% dUTP instead of dTTP (FIGS. 5 to 8); for Results of PCR in the presence of dUTP 481 bp: dTTP replaced by dUTP, 35 cycles
Experimental: 482 bp of human β-globin was amplified to compare the amplification difference between the case of using dTTP and the case of using dUTP in PCR, and the sensitivity to dUTP was examined. For amplification, each enzyme was used after being mixed with 1 μg of a KOD antibody per U of the enzyme. For PCR, components included in KOD-Plus-Ver. 2 (produced by Toyobo Co. Ltd.) were used. General dNTPs (dATP, dTTP, dCTP, dGTP) in an amount of 0.2 mM were added to 50 μl of individual reaction solutions, and dNTPs (dATP, dUTP, dCTP, dGTP) in an amount of 0.2 mM in which dTTP was replaced by dUTP were added to 50 μl of individual reaction solutions. The reaction solutions contained 1× PCR buffer, 1.5 mM MgSO4, primers represented by SEQ ID NOs: 27 and 28 in an amount of 15 pmol for amplifying […], 10 ng of human genomic DNA (produced by Roche), and 1 U of each respective enzyme mixed with the antibody. PCR was performed using a GeneAmp PCR system 9700 (produced by Applied Biosystems) on the following schedule: preliminary reaction at 94° C. for 2 minutes, followed by 35 cycles, each cycle consisting of 98° C. for 10 seconds and 68° C. for 1 minute. After the completion of each individual reaction, each of the resulting reaction solutions was analyzed using to a DNA-1000 kit for MultiNA (produced by Shimadzu Corporation) to confirm amplified DNA fragments. FIGS. 5 and 6 show the results.

[1] = tested on: 1.3 kbp, 2.8 kbp, and 3.6 kbp of human β-globin; assay: Amplification of long-chain DNA in PCR using dUTP; type: biochemical; parameters: key to Results of PCR in the presence of dUTP 1.3 kbp / Results of PCR in the presence of dUTP 2.8 kbp / Results of PCR in the presence of dUTP 3.6 kbp: A: Amplified; B: Amplified (faint band); C: Not amplified; conditions: dTTP replaced by dUTP, 35 cycles
In short: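 Enzymes (1 U, premixed with KOD antibody) amplified 1.3, 2.8 and 3.6 kbp β-globin from 10 ng human genomic DNA with 2 mM dNTPs having dUTP in place of dTTP, 1.5 mM MgSO4, 35 cycles (98° C. 10 s, 65° C. 30 s, 68° C. ~1 min/kbp). Taq control: 2.5 U, 94° C. denaturation. Yield judged by ethidium-stained agarose gel.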

Row | Substance | PCR amplification of 482 bp with dUTP (482 bp of human β-globin) | PCR amplification of 482 bp with dUTP (482 bp of human β-globin; listed as V93K/Y7A) | Results of PCR in the presence of dUTP 481 bp (482 bp of human β-globin) | Results of PCR in the presence of dUTP 1.3 kbp [1] | Results of PCR in the presence of dUTP 2.8 kbp [1] | Results of PCR in the presence of dUTP 3.6 kbp [1]
1 | KOD Y7A/V93K: modified KOD DNA polymerase with Y7A and V93K | allowed for PCR amplification | greatly improve the amplification amount, compared to V93K | A | A | A | B
2 | KOD P36R/V93K: modified KOD DNA polymerase with P36R and V93K | – | – | C | C | C | C
3 | KOD D141A/E143A/P36H: KOD D141A/E143A (exo(−)) mutant with P36H | – | – | A | A | A | A
4 | KOD D141A/E143A/P36R: KOD D141A/E143A (exo(−)) mutant with P36R | – | – | A | A | A | A
5 | KOD Y7A/P115Δ: modified KOD DNA polymerase with Y7A and lacking P115 | – | – | C | C | C | C
6 | KOD P115Δ: modified KOD DNA polymerase lacking P115 | – | – | C | C | C | C
7 | KOD N210D/Y7A: KOD N210D (exo(−)) mutant with Y7A | – | – | C | C | C | C
8 | KOD H147E/P36R: KOD H147E (exo(+)) mutant with P36R | – | – | A | B | B | B
9 | KOD N210D/P36H: KOD N210D (exo(−)) mutant with P36H | – | – | A | A | A | A
10 | KOD Y7A/P36R: modified KOD DNA polymerase with Y7A and P36R | allowed for PCR amplification | – | A | A | A | B
11 | KOD H147E/P36H: KOD H147E (exo(+)) mutant with P36H | – | – | A | B | B | C
12 | KOD D141A/E143A/Y7A/P36H: KOD D141A/E143A (exo(−)) mutant with Y7A and P36H | – | – | A | A | A | A
13 | KOD H147E/P36H/V93K: KOD H147E (exo(+)) mutant with P36H and V93K | – | – | A | A | A | C
14 | KOD D141A/E143A/Y7A: KOD D141A/E143A (exo(−)) mutant with Y7A | – | – | C | C | C | C
15 | KOD N210D/Y7A/P36H: KOD N210D (exo(−)) mutant with Y7A and P36H | – | – | A | A | A | A
16 | KOD Y7A/P36H: modified KOD DNA polymerase with Y7A and P36H | allowed for PCR amplification | – | A | A | A | B

Row | Substance | PCR amplification of 482 bp with dUTP (482 bp of human β-globin) | PCR amplification of 482 bp with dUTP (482 bp of human β-globin; listed as V93K/Y7A) | Results of PCR in the presence of dUTP 481 bp (482 bp of human β-globin) | Results of PCR in the presence of dUTP 1.3 kbp [1] | Results of PCR in the presence of dUTP 2.8 kbp [1] | Results of PCR in the presence of dUTP 3.6 kbp [1]
17 | KOD H147E/Y7A/V93K: KOD H147E (exo(+)) mutant with Y7A and V93K | – | – | A | A | A | B
18 | KOD N210D/Y7A/V93K: KOD N210D (exo(−)) mutant with Y7A and V93K | – | – | A | A | A | A
19 | KOD N210D/P115Δ: KOD N210D (exo(−)) mutant lacking P115 | – | – | C | C | C | C
20 | KOD I142R/P36H: KOD I142R (exo(−)) mutant with P36H | – | – | A | A | A | A
21 | KOD D141A/E143A/Y7A/V93K: KOD D141A/E143A (exo(−)) mutant with Y7A and V93K | – | – | A | A | A | A
22 | KOD D141A/E143A/V93K: KOD D141A/E143A (exo(−)) mutant with V93K | – | – | A | A | B | B
23 | KOD H147E/Y7A/P36H: KOD H147E (exo(+)) mutant with Y7A and P36H | – | – | A | A | A | B
24 | KOD D141A/E143A/Y7A/P36R: KOD D141A/E143A (exo(−)) mutant with Y7A and P36R | – | – | A | A | A | A
25 | KOD N210D/Y7A/P115Δ: KOD N210D (exo(−)) mutant with Y7A and lacking P115 | – | – | C | C | C | C
26 | KOD H147E/Y7A/P36R: KOD H147E (exo(+)) mutant with Y7A and P36R | – | – | A | A | A | B
27 | KOD N210D/V93R: KOD N210D (exo(−)) mutant with V93R | – | – | A | A | B | B
28 | KOD H147E/P115Δ: KOD H147E (exo(+)) mutant lacking P115 | – | – | C | C | C | C
29 | KOD I142R/Y7A/P36H: KOD I142R (exo(−)) mutant with Y7A and P36H | – | – | A | A | A | C
30 | KOD N210D/P36R: KOD N210D (exo(−)) mutant with P36R | – | – | A | A | A | A
31 | KOD H147E/P36R/V93K: KOD H147E (exo(+)) mutant with P36R and V93K | – | – | C | C | C | C
